In ChEMBL document CHEMBL1201862, “PubChem BioAssay data set” (2004):
Active and inactive are the calls of the source.

How the values were obtained:
HeLa = experiment: viability loss in HeLa cells – cell-based, ATP luminescence, cherry-pick samples, cytotoxicity control, dose response (AID 687004); format: functional; details: Homo sapiens
Coagulation factor XII = target: T1, Coagulation factor XII (Homo sapiens, UniProt P00748); format: functional;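 further: activated factor XIIa alpha cleaving a fluorogenic AMC peptide substrate; inhibitor potency from loss of enzyme activity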
T1 sequence (P00748 whole entry): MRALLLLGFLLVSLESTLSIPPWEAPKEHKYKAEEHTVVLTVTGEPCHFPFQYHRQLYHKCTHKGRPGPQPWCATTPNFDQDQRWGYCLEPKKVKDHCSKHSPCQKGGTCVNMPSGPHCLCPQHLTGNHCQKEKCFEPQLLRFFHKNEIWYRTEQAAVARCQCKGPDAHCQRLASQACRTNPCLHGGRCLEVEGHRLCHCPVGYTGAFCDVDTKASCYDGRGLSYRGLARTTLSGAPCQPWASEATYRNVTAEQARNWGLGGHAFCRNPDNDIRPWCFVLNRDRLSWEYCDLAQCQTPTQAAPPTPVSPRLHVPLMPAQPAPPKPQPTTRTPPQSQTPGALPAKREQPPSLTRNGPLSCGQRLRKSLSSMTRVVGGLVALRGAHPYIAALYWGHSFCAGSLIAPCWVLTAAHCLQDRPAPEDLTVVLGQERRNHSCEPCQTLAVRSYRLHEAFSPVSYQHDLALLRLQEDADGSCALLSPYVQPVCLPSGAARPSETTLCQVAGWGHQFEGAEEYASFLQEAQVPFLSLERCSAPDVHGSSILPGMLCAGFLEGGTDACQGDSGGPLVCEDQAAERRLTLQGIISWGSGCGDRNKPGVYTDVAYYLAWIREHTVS

cells [1] = format: functional, cell-based; details: HEK-CNG
[2] = target: T2, COUP transcription factor 2 (Homo sapiens, UniProt P24468); experiment: Luminescence-based cell-based high throughput dose response assay to identify inhibitors of COUP-TFII (NR2F2).; format: functional;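 further: HEK293 cells transiently cotransfected with COUP-TFII expression vector and reporter; luciferase reporter luminescence driven by COUP-TFII from the pX2-168 reporter plasmid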
T2 sequence (P24468 whole entry): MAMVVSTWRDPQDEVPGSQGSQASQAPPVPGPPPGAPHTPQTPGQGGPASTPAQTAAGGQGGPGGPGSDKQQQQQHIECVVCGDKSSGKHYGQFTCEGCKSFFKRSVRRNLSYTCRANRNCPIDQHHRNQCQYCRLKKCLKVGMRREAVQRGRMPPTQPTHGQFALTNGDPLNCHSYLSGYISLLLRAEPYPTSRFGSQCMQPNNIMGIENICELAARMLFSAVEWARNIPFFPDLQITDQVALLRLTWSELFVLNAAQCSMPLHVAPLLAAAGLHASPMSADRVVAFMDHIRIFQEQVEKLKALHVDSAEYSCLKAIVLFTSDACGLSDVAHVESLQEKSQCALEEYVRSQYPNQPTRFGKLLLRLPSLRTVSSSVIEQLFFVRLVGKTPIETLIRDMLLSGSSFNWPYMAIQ

Galanin receptor type 3 = Galanin receptor type 3 (Homo sapiens, UniProt O60755); experiment: Fluorescence-based cell-based primary high throughput dose response assay to identify antagonists of the Galanin Receptor 3 (GalR3).; format: functional
Galanin receptor type 3, sequence (O60755 whole entry): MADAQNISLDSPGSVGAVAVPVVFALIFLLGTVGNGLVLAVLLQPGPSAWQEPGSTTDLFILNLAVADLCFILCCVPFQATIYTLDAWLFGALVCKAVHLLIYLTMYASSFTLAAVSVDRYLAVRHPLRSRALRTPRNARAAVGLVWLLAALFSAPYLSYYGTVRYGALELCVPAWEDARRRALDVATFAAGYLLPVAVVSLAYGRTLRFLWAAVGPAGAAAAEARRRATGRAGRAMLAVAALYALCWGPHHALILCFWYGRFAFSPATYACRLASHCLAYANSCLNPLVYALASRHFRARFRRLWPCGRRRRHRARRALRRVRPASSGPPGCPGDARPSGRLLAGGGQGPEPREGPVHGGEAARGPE

A-375 [3] = experiment: proliferation inhibition in MITF-low A375 cells – cell-based, cherry-pick samples, set 2, counter-screen for MITF modulator project, dose response (AID 540335); format: functional; details: Homo sapiens
[4] = target: Fructose-bisphosphate aldolase (Mycobacterium tuberculosis, UniProt P9WQA3); experiment: Fluorescence-based biochemical high throughput dose response assay for inhibitors of the fructose-bisphosphate aldolase (FBA) of M. tuberculosis.; format: functional
Fructose-bisphosphate aldolase, sequence (P9WQA3 whole entry): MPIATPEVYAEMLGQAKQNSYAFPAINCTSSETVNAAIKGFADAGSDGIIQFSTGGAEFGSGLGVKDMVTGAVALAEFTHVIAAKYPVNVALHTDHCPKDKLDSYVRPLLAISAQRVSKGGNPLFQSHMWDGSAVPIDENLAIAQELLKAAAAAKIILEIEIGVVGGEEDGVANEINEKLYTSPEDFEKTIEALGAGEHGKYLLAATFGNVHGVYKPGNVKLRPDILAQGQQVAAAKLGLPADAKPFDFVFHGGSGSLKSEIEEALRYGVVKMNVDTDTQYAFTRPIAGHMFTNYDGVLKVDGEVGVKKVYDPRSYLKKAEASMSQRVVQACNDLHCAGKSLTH

cells [5] = format: functional, cell-based
cells [6] = format: functional, cell-based; remark: listed apart in the source
A-375 [7] = experiment: MITF: Counter assay: A375 proliferation Measured in Cell-Based System Using Plate Reader - 2084-03_Inhibitor_Dose_DryPowder_Activity. [Related pubchem assays (depositor defined):AID488944]; format: functional; details: Homo sapiens
[8] = target: Histone-lysine N-methyltransferase NSD2 (Homo sapiens, UniProt O96028); format: biochemical
Histone-lysine N-methyltransferase NSD2, sequence (O96028 whole entry): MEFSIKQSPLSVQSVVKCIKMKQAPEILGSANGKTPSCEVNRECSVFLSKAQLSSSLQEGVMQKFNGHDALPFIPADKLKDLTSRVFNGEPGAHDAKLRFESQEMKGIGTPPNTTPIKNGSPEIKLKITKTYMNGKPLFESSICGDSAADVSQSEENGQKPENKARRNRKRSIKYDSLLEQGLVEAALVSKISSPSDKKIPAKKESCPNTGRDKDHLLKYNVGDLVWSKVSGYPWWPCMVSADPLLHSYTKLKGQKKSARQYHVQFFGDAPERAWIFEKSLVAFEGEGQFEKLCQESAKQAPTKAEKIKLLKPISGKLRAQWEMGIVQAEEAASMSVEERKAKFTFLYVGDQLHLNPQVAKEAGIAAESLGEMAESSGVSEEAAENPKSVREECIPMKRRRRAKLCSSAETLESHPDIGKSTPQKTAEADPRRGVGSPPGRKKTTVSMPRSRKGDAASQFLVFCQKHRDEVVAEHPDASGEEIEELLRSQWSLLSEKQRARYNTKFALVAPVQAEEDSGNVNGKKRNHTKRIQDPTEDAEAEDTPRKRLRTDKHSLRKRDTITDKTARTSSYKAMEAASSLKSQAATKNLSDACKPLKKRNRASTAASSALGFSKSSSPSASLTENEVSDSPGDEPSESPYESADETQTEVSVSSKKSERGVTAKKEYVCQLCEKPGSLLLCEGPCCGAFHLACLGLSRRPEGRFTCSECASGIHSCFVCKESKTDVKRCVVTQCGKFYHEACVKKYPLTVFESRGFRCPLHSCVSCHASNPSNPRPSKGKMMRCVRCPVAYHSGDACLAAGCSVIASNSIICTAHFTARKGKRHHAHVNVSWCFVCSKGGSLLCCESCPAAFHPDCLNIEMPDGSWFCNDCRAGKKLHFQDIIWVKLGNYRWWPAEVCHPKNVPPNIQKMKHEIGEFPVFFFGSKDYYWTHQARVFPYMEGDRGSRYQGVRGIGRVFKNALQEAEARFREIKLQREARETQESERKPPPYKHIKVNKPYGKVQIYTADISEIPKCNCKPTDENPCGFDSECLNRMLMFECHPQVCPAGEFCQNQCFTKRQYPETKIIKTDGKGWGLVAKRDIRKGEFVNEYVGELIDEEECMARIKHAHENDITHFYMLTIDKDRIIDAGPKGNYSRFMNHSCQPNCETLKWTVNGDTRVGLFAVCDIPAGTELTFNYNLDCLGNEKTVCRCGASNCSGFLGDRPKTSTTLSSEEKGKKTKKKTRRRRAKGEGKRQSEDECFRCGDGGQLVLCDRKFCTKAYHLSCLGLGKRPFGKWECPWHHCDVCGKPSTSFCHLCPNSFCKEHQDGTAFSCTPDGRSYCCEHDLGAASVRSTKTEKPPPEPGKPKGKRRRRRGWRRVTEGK

[9] = Luminescence Cell-Based Dose Retest to Confirm Inhibitors of Cancer Stem Cells. [Related pubchem assays (depositor defined):AID2717, AID2721]; format: functional; details: Homo sapiens
[10] = A549 cell cytotoxicity, dose response, cytotoxicity control, plate reader, cherry-pick, antagonist series (AID 743412); format: functional, cell-based
[11] = target: Beta-2 adrenergic receptor (Homo sapiens, UniProt P07550); experiment: ADRB2 activation measured by internalization – cell-based, FAP fluorogen, flow cytometry, cherry pick 1, dose response (AID 588763); format: functional
Beta-2 adrenergic receptor, sequence (P07550 whole entry): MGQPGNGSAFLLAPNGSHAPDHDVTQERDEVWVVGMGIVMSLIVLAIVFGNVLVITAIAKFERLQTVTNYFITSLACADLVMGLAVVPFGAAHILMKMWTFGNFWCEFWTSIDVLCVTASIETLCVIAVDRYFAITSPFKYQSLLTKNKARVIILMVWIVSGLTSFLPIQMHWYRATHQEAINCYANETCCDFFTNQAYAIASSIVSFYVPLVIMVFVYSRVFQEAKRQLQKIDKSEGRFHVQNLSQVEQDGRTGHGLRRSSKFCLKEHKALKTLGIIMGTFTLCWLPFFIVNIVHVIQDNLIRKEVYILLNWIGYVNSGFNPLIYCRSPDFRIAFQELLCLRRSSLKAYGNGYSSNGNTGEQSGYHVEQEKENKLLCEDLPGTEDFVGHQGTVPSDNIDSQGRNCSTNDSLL

[12] = toxicity toward HepG2 liver cells – cell-based, plate reader, cherry-pick, antagonist series, cytotoxicity control, dose response (AID 743416); format: functional
[13] = blockade of melanocortin 4 receptor signaling – cell-based, plate reader, cherry pick, counter-screen for LGR2 antagonist project, dose response (AID 743444); format: functional;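 further: transfected HEK 293 cells stimulated with alpha-MSH peptide; potency of inhibitors of the alpha-MSH evoked signal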
[14] = viability loss in HEK293 cells – cell-based, plate reader, cherry-picked samples, cytotoxicity control, dose response (AID 743446); format: functional
[15] = blockers of bursicon-stimulated LGR2 cAMP reporter – cell-based, HEK293, CRE-luciferase reporter, cherry pick, set 2, dose response (AID 743343); format: functional;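 further: transfected cells were stimulated with diluted bursicon conditioned medium after compound addition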
[16] = viability loss in HEK293T cells – cell-based, cherry-picks, cytotoxicity control for HIV Vif inhibitor project, dose response (AID 652208); format: functional

With Cc1ccc(CSc2ncnc3c2cnn3-c2ccc(C)cc2)cc1 the AC50 (HeLa) was 48.5 µM (active) and the IC50 (Coagulation factor XII) was > 50 µM (inactive).
In the case of Cc1c(Cl)cccc1NC(=O)N1CCCN(c2nc(-c3ccccc3)ns2)CC1, the EC50 (cells [1]) was > 29.9 µM (inactive), the IC50 [2] was 13.4 µM (inactive) and the IC50 (Galanin receptor type 3) was 1.53 µM (active).
For Cc1ccc(Nc2nnc(-c3ccccc3N)o2)cc1C, the AC50 (A-375 [3]) was > 35 µM (active), the IC50 [4] was 1.45 µM (active) and the EC50 (cells [5]) was > 350 µM (not active). For the same compound, the EC50 (cells [6]) was 7.3 µM (active) and the AC50 (A-375 [7]) was > 35 µM (active).
For COc1cc(/C=C2\C(=N)N3N=C(S(C)(=O)=O)SC3=NC2=O)ccc1OC(=O)c1cccs1, the AC50 [8] was > 20 µM (inactive).
For Cn1nnnc1Sc1ncnc2scc(-c3ccc(Cl)cc3)c12, the AC50 [9] was 3.48 µM (active), the AC50 [10] was 7.88 µM (active) and the EC50 [11] was 8.38 µM (active). For the same compound, the AC50 [12] was 12.1 µM (active), the AC50 [13] was 23.2 µM (active) and the AC50 [14] was 13.9 µM (active). For the same compound, the AC50 [15] was 14.3 µM (active) and the AC50 [16] was 11.8 µM (active).
